Test results as given in US11505548B2, “Heterocyclic compounds and their use for treatment of helminthic infections and diseases” (Celgene Corporation, priority 2019, dated 2022).

Each molecule was assayed on Onchocerca gutturosa Adult Male Worms (assay: Onchocerciasis in vitro screening model, worm motility score). Conditions: Onchocerca gutturosa; Table 1 O. gutturosa; levels A/B/C; motility or MTT readout not specified; read-out: O. gutturosa activity level (IC50 or MED).
Format: cell-based

| SMILES | IC50 |
| --- | --- |
| Cc1cccnc1Nc1nc(-c2cc(OC(C)C)c(C(F)(F)F)cn2)ns1 [Compound 152, 3-(4-isoprop-oxy-5-(trifluoromethyl)pyridin-2-yl)-N-(3-methylpyridin-2-yl)-1,2,4-thia-diazol-5-amine] | 200 to 500 nM |
| CN(C)c1cccnc1Nc1nc(-c2cc(OC3CC3)c(C(F)(F)F)cn2)ns1 [Compound 153, N2-(3-(4-cyclo-propoxy-5-(trifluoromethyl)pyridin-2-yl)-1,2,4-thiadiazol-5-yl)-N3,N3-dimethyl-pyridine-2,3-diamine] | 500 to 5000 nM |
| CC(C)Oc1ccc(-c2nnc(Nc3cc(C(F)(F)F)c(C(C)C)cn3)o2)nc1 [Compound 154, 5-(5-isoprop-oxypyridin-2-yl)-N-(5-isopropyl-4-(trifluoro-methyl)pyridin-2-yl)-1,3,4-oxadiazol-2-amine] | 200 to 500 nM |
| CC(C)Oc1ccc(-c2nsc(Nc3ncccc3N(C)C)n2)nn1 [Compound 155, N2-(3-(6-isopropoxy-pyridazin-3-yl)-1,2,4-thiadiazol-5-yl)-N3,N3-dimethyl-pyridine-2,3-diamine] | 500 to 5000 nM |
| CC(C)Oc1cnc(-c2nsc(Nc3ncccc3N(C)C)n2)cc1C(F)(F)F [Compound 156, N2-(3-(5-isopropoxy-4-(trifluoromethyl)pyridin-2-yl)-1,2,4-thiadiazol-5-yl)-N3,N3-dimethyl-pyridine-2,3-diamine] | < 200 nM |
| CC(=O)N(C)c1cccnc1Nc1nc(-c2ccc(OC(C)C)cn2)ns1 [Compound 157, N-(2-(3-(5-isopropoxy-pyridin-2-yl)-1,2,4-thiadiazol-5-ylamino)pyridin-3-yl)-N-methyl-acetamide] | 500 to 5000 nM |
| COc1cnc(-c2nnc(Nc3ncccc3N(C)C)o2)cn1 [Compound 158, N2-(5-(5-methoxy-pyrazin-2-yl)-1,3,4-oxadiazol-2-yl)-N3,N3-dimethyl-pyridine-2,3-diamine] | 500 to 5000 nM |
| CNc1cccnc1N(C)c1nc(-c2ccc(OC(C)C)cn2)ns1 [Compound 159, N2-(3-(5-isopropoxy-pyridin-2-yl)-1,2,4-thiadiazol-5-yl)-N2,N3-dimethyl-pyridine-2,3-diamine] | 500 to 5000 nM |
| CC(C)Oc1cnc(-c2nnc(Nc3ncccc3N(C)C)o2)cc1C(F)(F)F [Compound 160, N2-(5-(5-isopropoxy-4-(trifluoromethyl)pyridin-2-yl)-1,3,4-oxadiazol-2-yl)-N3,N3-dimethyl-pyridine-2,3-diamine] | 500 to 5000 nM |
| CC(=O)Nc1cccnc1Nc1nc(-c2ccc(OC(C)C)cn2)ns1 [Compound 161, N-(2-(3-(5-isopropoxy-pyridin-2-yl)-1,2,4-thiadiazol-5-ylamino)pyridin-3-yl)acetamide] | 500 to 5000 nM |
| CN(C)c1cccnc1Nc1nc(-c2cc3c(cn2)N(C)CC3)ns1 [Compound 162, N3,N3-dimethyl-N2-(3-(1-methyl-2,3-dihydro-1H-pyrrolo[2,3-c]pyridin-5-yl)-1,2,4-thiadiazol-5-yl)pyridine-2,3-diamine] | < 200 nM |
| CN1Cc2ccnc(-c3nsc(Nc4ncccc4N(C)C)n3)c2C1 [Compound 163, N3,N3-dimethyl-N2-(3-(2-methyl-2,3-dihydro-1H-pyrrolo[3,4-c]pyridin-4-yl)-1,2,4-thia-diazol-5-yl)pyridine-2,3-diamine] | < 200 nM |
| CC(C)Oc1ccc(-c2nsc(Nc3ncccc3C(N)=O)n2)nc1 [Compound 164, 2-(3-(5-isoprop-oxypyridin-2-yl)-1,2,4-thiadiazol-5-ylamino) nicotinamide] | 500 to 5000 nM |
| CC(C)Oc1ccc(-c2nsc(Nc3ncc(C(C)C)cc3C(F)(F)F)n2)nc1 [Compound 165, 3-(5-isopropoxy-pyridin-2-yl)-N-(5-isopropyl-3-(trifluoromethyl)pyridin-2-yl)-1,2,4-thiadiazol-5-amine] | < 200 nM |
| COc1cc(C(C)C)cnc1Nc1nc(-c2ccc(OC(C)C)cn2)ns1 [Compound 166, 3-(5-isopropoxy-pyridin-2-yl)-N-(5-isopropyl-3-methoxypyridin-2-yl)-1,2,4-thiadiazol-5-amine] | < 200 nM |
| COc1cccnc1Nc1nc(-c2cc(C(F)(F)F)c(OC(C)C)cn2)ns1 [Compound 167, 3-(5-isopropoxy-4-(trifluoromethyl)pyridin-2-yl)-N-(3-methoxypyridin-2-yl)-1,2,4-thiadiazol-5-amine] | 200 to 500 nM |
| CC(C)Oc1cnc(-c2nsc(Nc3ncccc3C(C)C)n2)cc1C(F)(F)F [Compound 168, 3-(5-isoprop-oxy-4-(trifluoromethyl)pyridin-2-yl)-N-(3-isopropyl-pyridin-2-yl)-1,2,4-thiadiazol-5-amine] | < 200 nM |
| CC(C)Oc1ccc(-c2nsc(Nc3ncccc3N(C)C(=O)C(C)C)n2)nc1 [Compound 169, N-(2-(3-(5-isopropoxy-pyridin-2-yl)-1,2,4-thiadiazol-5-ylamino)pyridin-3-yl)-N-methyliso-butyramide] | 200 to 500 nM |
| CC(C)Oc1ccc(-c2nsc(Nc3ncccc3N(C)C(=O)C3CC3)n2)nc1 [Compound 170, N-(2-(3-(5-isopropoxy-pyridin-2-yl)-1,2,4-thiadiazol-5-ylamino)pyridin-3-yl)-N-methylcyclo-propanecarbox-amide] | 200 to 500 nM |

| SMILES | IC50 |
| --- | --- |
| CC(C)Oc1ccc(-c2nsc(Nc3ncccc3N(C)C(=O)C3CCC3)n2)nc1 [Compound 171, N-(2-(3-(5-isopropoxy-pyridin-2-yl)-1,2,4-thiadiazol-5-ylamino)pyridin-3-yl)-N-methylcyclo-butane-carboxamide] | < 200 nM |
| CC(C)Oc1ccc(-c2nsc(Nc3ncccc3N(C)C(=O)C3CCCC3)n2)nc1 [Compound 172, N-(2-(3-(5-isopropoxy-pyridin-2-yl)-1,2,4-thiadiazol-5-ylamino)pyridin-3-yl)-N-methylcyclo-pentane-carboxamide] | < 200 nM |
| Cc1cccnc1Nc1nnc(-c2cc(OC(C)C)ccn2)s1 [Compound 173, 5-(4-isopropoxy-pyridin-2-yl)-N-(3-methyl-pyridin-2-yl)-1,3,4-thia-diazol-2-amine] | 500 to 5000 nM |
| COc1ccnc(-c2nnc(Nc3ccc(C(F)(F)F)cn3)s2)c1 [Compound 174, 5-(4-methoxy-pyridin-2-yl)-N-(5-(trifluoromethyl)pyridin-2-yl)-1,3,4-thiadiazol-2-amine] | 200 to 500 nM |
| COc1ccnc(-c2nsc(Nc3ccc(C(F)(F)F)cn3)n2)c1 [Compound 176, 3-(4-methoxy-pyridin-2-yl)-N-(5-(trifluoromethyl)pyridin-2-yl)-1,2,4-thiadiazol-5-amine] | < 200 nM |
| COc1ccnc(-c2nsc(Nc3ccc(C(C)C)cn3)n2)c1 [Compound 177, N-(5-isopropyl-pyridin-2-yl)-3-(4-methoxy-pyridin-2-yl)-1,2,4-thiadiazol-5-amine] | < 200 nM |
| CC(C)Oc1ccc(-c2nsc(Nc3ncccc3N3CCCC3=O)n2)nc1 [Compound 178, 1-(2-(3-(5-isopropoxy-pyridin-2-yl)-1,2,4-thiadiazol-5-ylamino)pyridin-3-yl)pyrrolidin-2-one] | 500 to 5000 nM |
| CC(C)Oc1cnc(-c2nsc(Nc3ncccc3N3CCCC3=O)n2)cc1C(F)(F)F [Compound 179, 1-(2-(3-(5-isopropoxy-4-(trifluoromethyl)pyridin-2-yl)-1,2,4-thiadiazol-5-ylamino)pyridin-3-yl)pyrrolidin-2-one] | 500 to 5000 nM |
| COc1ccc(Nc2nnc(-c3ccc(OC(C)C)cn3)o2)nc1 [Compound 180, 5-(5-isopropoxy-pyridin-2-yl)-N-(5-methoxy-pyridin-2-yl)-1,3,4-oxadiazol-2-amine] | 500 to 5000 nM |
| CC(C)Oc1ccc(-c2nnc(Nc3ccc(C(C)C)cn3)s2)nc1 [Compound 181, 5-(5-isopropoxy-pyridin-2-yl)-N-(5-isopropyl-pyridin-2-yl)-1,3,4-thiadiazol-2-amine] | 500 to 5000 nM |
| COc1ccnc(-c2nsc(Nc3cc(C(F)(F)F)c(C(C)C)cn3)n2)c1 [Compound 182, N-(5-iso-propyl-4-(trifluoro-methyl)pyridin-2-yl)-3-(4-methoxy-pyridin-2-yl)-1,2,4-thiadiazol-5-amine] | 200 to 500 nM |
| COc1ccc(Nc2nc(-c3cc(OC4CCCCC4)ccn3)ns2)nc1 [Compound 183, 3-(4-(cyclo-hexyloxy)pyridin-2-yl)-N-(5-methoxypyridin-2-yl)-1,2,4-thiadiazol-5-amine] | 200 to 500 nM |
| COc1ccnc(-c2nsc(Nc3ccc(OC(C)C)cn3)n2)c1 [Compound 184, N-(5-isoprop-oxypyridin-2-yl)-3-(4-methoxy-pyridin-2-yl)-1,2,4-thiadiazol-5-amine] | < 200 nM |
| COc1ccc(-c2nsc(Nc3ccc(C(C)C)cn3)n2)nc1 [Compound 185, N-(5-isopropyl-pyridin-2-yl)-3-(5-methoxy-pyridin-2-yl)-1,2,4-thiadiazol-5-amine] | 200 to 500 nM |
| CC(C)Oc1cnc(-c2nsc(Nc3ncccc3N(C)C(=O)C3CC3)n2)cc1C(F)(F)F [Compound 186, N-(2-(3-(5-isopropoxy-4-(trifluoro-methyl)pyridin-2-yl)-1,2,4-thiadiazol-5-ylamino)pyridin-3-yl)-N-methylcyclo-propanecarbox-amide] | 500 to 5000 nM |
| CC(=O)N(C)c1cccnc1Nc1nc(-c2cc(C(F)(F)F)c(OC(C)C)cn2)ns1 [Compound 187, N-(2-(3-(5-isopropoxy-4-(trifluoro-methyl)pyridin-2-yl)-1,2,4-thiadiazol-5-ylamino)pyridin-3-yl)-N-methylacetamide] | 500 to 5000 nM |
| CC(C)Oc1ccc(-c2nsc(Nc3ncccc3C(=O)N(C)C)n2)nc1 [Compound 188, 2-(3-(5-isoprop-oxypyridin-2-yl)-1,2,4-thiadiazol-5-ylamino)-N,N-dimethyl nicotinamide] | 200 to 500 nM |
| CNC(=O)c1cccnc1Nc1nc(-c2ccc(OC(C)C)cn2)ns1 [Compound 189, 2-(3-(5-isoprop-oxypyridin-2-yl)-1,2,4-thiadiazol-5-ylamino)-N-methyl-nicotinamide] | 500 to 5000 nM |
| CC(C)Oc1ccc(-c2nsc(Nc3ncccc3C(=O)N3CCCC3)n2)nc1 [Compound 190, (2-(3-(5-isoprop-oxypyridin-2-yl)-1,2,4-thiadiazol-5-ylamino)pyridin-3-yl) (pyrrolidin-1-yl) methanone] | 200 to 500 nM |
